In patent publication US20190352358A1, “COMPOUNDS, COMPOSITIONS AND USES THEREOF FOR IMPROVEMENT OF BONE DISORDERS” (ALIZE PHARMA III SAS, priority 2017, published 2019):
Non-standard residues stand in square brackets, D forms with d. Residues, ends and D or L forms follow the SMILES beside them. Primed or numbered codes have the meaning given here. No end group written: not given here. *: point of attachment. PEG20′ = PEG20 chain (pegylated), attached via a cysteine; Arachidoyl = CCCCCCCCCCCCCCCCCCCC(=O)*; Stearoyl = CCCCCCCCCCCCCCCCCC(=O)*; Palmitoyl = CCCCCCCCCCCCCCCC(=O)*; Myristoyl = CCCCCCCCCCCCCC(=O)*

How the values were obtained:
[1] = test system: MC-3T3 E1 clone 4 (CL4) osteoblast cells; test: Osteocalcin expression during in vitro osteoblast differentiation, acylated and cyclic analogs (Example 7); assay type: cell-based; details: for Fold increase vs DM ± SE: Table 18, test peptide 1 μg/L, 18-21 day interval
Description: (§1) Each acylated peptide was tested in a biologic assay measuring its ability to stimulate differentiation of osteoblast cells over a 18-21 day interval as assessed by the stimulation of osteocalcin protein synthesis. MC-3T3 E1 clone 4 (CL4) osteoblast cells were obtained from ATCC (Manassas, Va., USA). Cells were cultured in α-MEM containing 10% fetal bovine serum (FBS; Thermo Fisher Scientific, Pittsburgh, Pa., USA). After confluency, culture medium was changed to differentiation medium (DM), which contained 10% FBS plus 50 μg/mL ascorbic acid and 4 mM β-glycerol phosphate, with or without a test peptide (1 μg/L). Fresh DM, with or without test peptide, was applied every 72 hours. The cell monolayers were lysed in a modified radioimmunoprecipitation assay (RIPA) buffer. Total cellular protein in the lysates was determined using BCA (Thermo Fisher Scientific, Rockford, Ill., USA). Cell proteins are separated on SDS-PAGE gel and transferred on PVDF membrane for analysis. Osteocalcin detection was performed using anti-osteocalcin antibody at 1:200 dilution (Santa Cruz Biotechnology, Inc, Santa Cruz, Calif., USA) and visualized using enhanced chemiluminescence (Thermo Fisher Scientific, Rockford, Ill., USA).
In a separate experiment, the effect of cyclization was examined on of the HBD1 (3-11) peptide. The cyclic HBD1 (3-11) was synthetized and tested on the in vitro osteoblast differentiation assay.

[2] = Stability of HBD1 fragments in human plasma; assay type: in vitro ADME
Description: The peptides were spiked at 1 μg/mL (peptide backbone) into pre-warmed human K2EDTA plasma (at 37° C.) and incubated for up to 48 hours. Aliquots of plasma were extracted at specific time points (0, 24 and 48 hours post spike). Extraction was performed with acetonitrile:water (75:25, v/v) for HBD1 (1-13), HBD1 (1-13) with palmitic acid at the N-terminus (C16:0), HBD1 (3-11) with palmitic acid at the N-terminus (C16:0)) and HBD1 (3-11) with stearic acid at the N-terminus (C18:0) or with acetonitrile:water:formic acid (75:25:0.1, v/v/v) for HBD1 (3-11) and cyclic HBD1 (3-11). The peptides were analyzed using developed LC (C18 reverse phase column)—positive ion electrospray MS/MS methods specific to each peptide. The peak area at each time point was expressed as a percentage of the value obtained for the t=0 minutes time point.

[3] = Pharmacokinetics of acylated analogs in male Sprague Dawley rats after subcutaneous injection (Example 11); assay type: in vivo; set-up: AUC(0-t): concentration or dose not given beside the values; details: sc, rat, Table 24
Description: The peptides were reconstituted in saline (0.9% NaCl). Three male Sprague Dawley rats (approximately 6 weeks of age) were used per group. Subcutaneous doses were administered into the right flank of each animal […]. Following dosing, serial whole blood samples (ca. 0.3 mL) were collected from retro-orbital sinus into K2EDTA treated containers. Following each blood sample collection, samples were placed into a cooling block at 4° C. Samples were collected prior to dosing then at 15 and 30 minutes then 1, 2, 4, 6, 8 and 24 hours post dose for subcutaneous injection. Blood samples were centrifuged at 3500×rpm for 10 minutes at 4° C. and resultant plasma aspirated off into clean fully, labelled tubes. Plasma samples were snap frozen following aspiration then stored at −80° C. The peptides were extracted with acetonitrile:water (75:25, v/v) and analyzed using developed LC-MS/MS methods as described in Example 9. The limits of detection of these methods are 0.003 nmol/mL for HBD1 (1-13) with palmitic acid at the N-terminus (C16:0), 0.0008 nmol/mL for HBD1 (3-11) with palmitic acid at the N-terminus (C16:0), 0.0070 nmol/mL for HBD1 (3-11) with stearic acid at the N-terminus (C18:0), and 0.0015 nmol/mL for HBD1 (3-11) with myristic acid at the N-terminus (C14:0), HBD1 (3-11) with arachidic acid at the N-terminus (C20:0), HBD1 (3-11) with palmitic diacid at the N-terminus (C16:0-diacid), HBD1 (3-11) with palmitic acid at the C-terminus (C16:0). All values below these limits of quantification were considered as zero.

[4] = test system: MC-3T3 E1 clone 4 (CL4) osteoblast cells; test: Osteocalcin expression during in vitro osteoblast differentiation, various doses of analogs (Example 8); assay type: cell-based; details: Table 19, 18 day interval
Description: as §1, with “The peptides were” for “Each acylated peptide was”, “tested at different concentrations” for “tested”, “their” for “its”, “18” for “18-21”, “an ascending dose of the peptide.” for “a test peptide (1 μg/L).”, “the” for “test”

[5] = test system: MC-3T3 E1 clone 4 (CL4) osteoblast cells; test: Osteocalcin expression during in vitro osteoblast differentiation, PEGylated analogs (Example 6); assay type: cell-based; details: Table 17; test peptide 2 μg/mL; 18-21 day interval
Description: as §1, with “Each” for “Each acylated”, “(2 μg/mL).” for “(1 μg/L).”, “SD S-PAGE” for “SDS-PAGE”

[6] = Pharmacokinetics in male Sprague Dawley rats after intravenous and subcutaneous injection (Example 10); assay type: in vivo; details: 1 μmol net peptide/kg, rat
Description: The peptides were reconstituted in saline (0.9% NaCl). Three male Sprague Dawley rats were used per group. Intravenous doses were administered into a lateral tail vein at the dose of 1 μmol net peptide/kg. Subcutaneous doses were administered into the right flank of each animal, also at the dose of 1 μmol net peptide/kg. Following dosing, serial whole blood samples (ca. 0.25 mL) were collected from a lateral tail vein into K2EDTA treated containers. Following each blood sample collection, samples were placed into a cooling block at 4° C. Samples were collected prior to dosing then at 2, 5, 15 and 30 minutes then 1, 2, 4, 6 and 8 and 24 hours post dose for intravenous injection and at 15 and 30 minutes then 1, 2, 4, 6, 8 and 24 hours post dose for subcutaneous injection.
Blood samples were centrifuged at 10000×g for 2 minutes at 4° C. and resultant plasma aspirated off into clean fully, labelled tubes. Plasma samples were snap frozen following aspiration then stored at −80° C. Peptides were extracted and analyzed as described in Example 9. The limits of quantification of these methods were 0.001 nmol/mL for cyclic HBD1 (3-11) and HBD1 (3-11) and 0.003 nmol/mL for HBD1 (1-13). All values below these limits of quantification were considered as zero.

[7] = male, Sprague Dawley, plasma, iv
[8] = male, Sprague Dawley, plasma, sc

Row | Compound | AUC(0-t) ([3]; male, Sprague Dawley, plasma) [µM·h] | Cmax ([3]; male, Sprague Dawley, plasma) [nM] | Tmax ([3]; male, Sprague Dawley, plasma) [min] | Tlast (last time point with detectable peptide) [3] [h] | Fold increase vs DM ± SE [1] [fold] | Fold increase vs SEQ ID NO: 1 ± SE [5] [fold] | other results
1 | 65 ([PEG20′]CHHLGLEEPKK) [compound 65] |  |  |  |  |  | 1.4 ± 0.1 | 
2 | 66 (HHLGLEEPKK; not fully specified; MOD_RES (10)..(10) Pegylated) [compound 66] |  |  |  |  |  | 2.2 ± 0.2 | 
3 | 67 ([PEG20′]CHLGLEEPKK) [compound 67] |  |  |  |  |  | 1.9 ± 0.2 | 
4 | 64 (KHHLGLEEPKKLR; not fully specified; MOD_RES (13)..(13) Pegylated) [compound 64] |  |  |  |  |  | 2.2 ± 0.4 | 
5 | CC(C)C[C@@H]1NC(=O)CNC(=O)[C@H](CC(C)C)NC(=O)[C@H](Cc2c[nH]cn2)NC(=O)[C@H](CCCCN)NC(=O)[C@H](CCCCN)NC(=O)[C@@H]2CCCN2C(=O)[C@H](CCC(=O)O)NC(=O)[C@H](CCC(=O)O)NC1=O [SEQ ID NO: 77, Cyclic(HLGLEEPKK)] (cyclo(EEPKKHLGL)) |  |  |  |  |  |  | in vitro biological activity of acylated or cyclic peptides vs parent peptides (in words) ([1]; text on Table 18 and separate experiment): did not appear to change the in vitro biological activity; Tlast (last time point with detectable peptide) ([6]; iv, listed as Cyclic HBD1 (3-11)): 8 h; bioavailability ([6]; male, Sprague Dawley, plasma, subcutaneous, sc vs iv, read-out: F (bioavailability)): 48%; AUC(0-t) [6, 7]: 2.09 µM·h; Cmax [6, 7]: 5720 nM; Tmax [6, 7]: 1.98 min; AUC(0-t) [6, 8]: 0.99 µM·h; Cmax [6, 8]: 1060 nM; Tmax [6, 8]: 15 min; Tlast (last time point with detectable peptide) ([6]; sc, listed as Cyclic HBD1 (3-11)): 4 h; Tlast (last time point with detectable peptide) ([6]; sc, listed as cyclic HBD1 (3-11)): ≤ 4 h
6 | 63 ([PEG20′]CKHHLGLEEPKKLR) [compound 63] |  |  |  |  |  | 1.4 ± 0.3 | 

The next lines start with results.

Row | AUC(0-t) ([3]; male, Sprague Dawley, plasma) [µM·h] | Cmax ([3]; male, Sprague Dawley, plasma) [nM] | Tmax ([3]; male, Sprague Dawley, plasma) [min] | Tlast (last time point with detectable peptide) [3] [h] | Compound | Fold increase vs DM ± SE [1] [fold] | Fold increase vs SEQ ID NO: 1 ± SE [5] [fold] | other results
7 | 4.81 | 540 | 240 | 8 | CCCCCCCCCCCCCCCCCC(=O)N[C@@H](Cc1c[nH]cn1)C(=O)N[C@@H](CC(C)C)C(=O)NCC(=O)N[C@@H](CC(C)C)C(=O)N[C@@H](CCC(=O)O)C(=O)N[C@@H](CCC(=O)O)C(=O)N1CCC[C@H]1C(=O)N[C@@H](CCCCN)C(=O)N[C@@H](CCCCN)C(=O)O [compound 73] (Stearoyl-HLGLEEPKK-OH) | 2.93 ± 0.16 |  | stability in human plasma (in words) ([2]; 24 and 48 hours incubation at 37° C.): similar; remaining at 24 h, 1 μg/mL ([2]; human, human K2EDTA plasma, spiked at 1 μg/mL, 37° C., 24 hours, read-out: Remaining parent peptide in human plasma 24 hours post spike): 89%; remaining at 48 h, 1 μg/mL ([2]; human, human K2EDTA plasma, spiked at 1 μg/mL, 37° C., 48 hours, read-out: Remaining parent peptide in human plasma 48 hours post spike): 91%; Fold increase vs DM ± SD ([4]; dose 1.0 μM): 3.46 ± 0.47 fold; Fold increase vs DM ± SD ([4]; dose 2.0 μM): 4.48 ± 0.07 fold; Fold increase vs DM ± SD ([4]; dose 3.0 μM): 5.66 ± 0.45 fold
8 | 1.11 | 240 | 60 | 6 | CCCCCCCCCCCCCC(=O)N[C@@H](Cc1c[nH]cn1)C(=O)N[C@@H](CC(C)C)C(=O)NCC(=O)N[C@@H](CC(C)C)C(=O)N[C@@H](CCC(=O)O)C(=O)N[C@@H](CCC(=O)O)C(=O)N1CCC[C@H]1C(=O)N[C@@H](CCCCN)C(=O)N[C@@H](CCCCN)C(=O)O [compound 71] (Myristoyl-HLGLEEPKK-OH; C-terminus assumed) | 1.98 ± 0.22 |  | 
9 |  |  |  | 8 | CCCCCCCCCCCCCCCC(=O)NCCCC[C@H](NC(=O)[C@H](CCCCN)NC(=O)[C@@H]1CCCN1C(=O)[C@H](CCC(=O)O)NC(=O)[C@H](CCC(=O)O)NC(=O)[C@H](CC(C)C)NC(=O)CNC(=O)[C@H](CC(C)C)NC(=O)[C@@H](N)Cc1c[nH]cn1)C(=O)O [compound 76] (H-HLGLEEPKK(Palmitoyl)-OH; N-terminus and C-terminus assumed) | 3.18 ± 0.31 |  | AUC(0-t) ([3]; in vivo): 1.09 µM·h; Cmax ([3]; in vivo): 500 nM; Tmax ([3]; in vivo): 15 min
10 | 2.58 | 250 | 120 | 8 | CCCCCCCCCCCCCCCCCCCC(=O)N[C@@H](Cc1c[nH]cn1)C(=O)N[C@@H](CC(C)C)C(=O)NCC(=O)N[C@@H](CC(C)C)C(=O)N[C@@H](CCC(=O)O)C(=O)N[C@@H](CCC(=O)O)C(=O)N1CCC[C@H]1C(=O)N[C@@H](CCCCN)C(=O)N[C@@H](CCCCN)C(=O)O [compound 74] (Arachidoyl-HLGLEEPKK-OH) | 5.05 ± 0.95 |  | 
